Assay results from patent US7378428B2, “Nitrogen-containing bicyclic compounds and drugs containing the same as the active ingredient” (Ono Pharmaceutical Co., Ltd., priority 2002, dated 2008).

Target: T1, Human CB2 receptors (Homo sapiens, UniProt P34972)
T1 construct: expressed in transfected cells; host or cells: CHO cells
T1 sequence (P34972 whole entry): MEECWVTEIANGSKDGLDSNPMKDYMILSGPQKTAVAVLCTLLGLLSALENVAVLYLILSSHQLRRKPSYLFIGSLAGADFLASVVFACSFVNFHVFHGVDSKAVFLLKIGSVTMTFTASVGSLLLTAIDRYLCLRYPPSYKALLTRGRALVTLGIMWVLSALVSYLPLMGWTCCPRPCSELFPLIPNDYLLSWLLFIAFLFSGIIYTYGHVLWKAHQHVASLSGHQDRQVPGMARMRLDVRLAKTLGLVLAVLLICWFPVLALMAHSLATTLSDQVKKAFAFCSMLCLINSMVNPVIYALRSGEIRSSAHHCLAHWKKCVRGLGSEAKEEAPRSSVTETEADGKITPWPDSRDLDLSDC
Assay: In vitro signaling assay: inhibition of forskolin-induced cAMP production in human CB2 receptor expressing CHO cells
Assay type: cell-based
Conditions: 10 μM forskolin, 15 minutes at room temperature
Description: Human CB2 receptors expressed CHO cells were used for the assays. Cells were dispersed seeded in 96-well plates in a density of 5×10^4 cells/well, and were subjected to experiment the next day. After removing the culture media 1 mM isobutylmethylxanthine (IBMX) solution was added, and cells were incubated for 10 minutes at room temperature. Next, a mixture of 10 μM forskolin and the compound of the present invention was added. After additional incubation for 15 minutes at room temperature, the culture supernatant was discarded and 200 μl of lysis reagent (attached to a cAMP EIA) was added. The amounts of cAMP of the lysate were determined by a cAMP EIA kit (Amersham) under conditions of the forskolin-induced cAMP production. The compound of the present invention was dissolved in DMSO and the solution was diluted to adjust the final concentration of DMSO to 0.1%. IC50 values were calculated from the inhibitory ratio of the compound of the present invention toward the amount of the forskolin-induced cAMP production. By the same experiment using CHO cells, it was confirmed that this inhibitory effect toward cAMP production by the compound was mediated via the human CB2 receptors.
`CC1(C)Cc2cc(C#N)c(C#N)cc2/C(=C/C(=O)C2CCOCC2)N1` [46(3), (Z)-2-(6,7-dicyano-3,3-dimethyl-3,4-dihydro-(2H)-isoquinolin-1-ylidene)-1-(tetrahydropyran-4-yl)ethan-1-one] gave an IC50 of 5.3 nM. `Cc1cc2c(cc1O)/C(=C/C(=O)C13CC4CC(CC(C4)C1)C3)NC(C)(C)C2` [47(4), (Z)-2-(7-hydroxy-3,3,6-trimethyl-3,4-dihydro-(2H)-isoquinolin-1-ylidene)-1-(adamantan-1-yl)ethan-1-one] showed an IC50 of 5.2 nM. In the case of `Cc1cc2c(cc1O)/C(=C/C(=O)C1CCCCCC1)NC(C)(C)C2` [47(6), (Z)-2-(7-hydroxy-3,3,6-trimethyl-3,4-dihydro-(2H)-isoquinolin-1-ylidene)-1-cycloheptylethan-1-one], the IC50 is reported as 4.1 nM. For `COc1ccc2c(c1)C(C)(C)N/C2=C\C(=O)c1ccccc1OC` [57(2), (Z)-2-(5-methoxy-3,3-dimethyl-2,3-dihydro-(2H)-isoindol-1-ylidene)-1-(2-methoxyphenyl)ethan-1-one], the IC50 was 3.3 nM.

Target: T2, PDE7 (Homo sapiens, UniProt Q13946)
T2 sequence (Q13946 whole entry): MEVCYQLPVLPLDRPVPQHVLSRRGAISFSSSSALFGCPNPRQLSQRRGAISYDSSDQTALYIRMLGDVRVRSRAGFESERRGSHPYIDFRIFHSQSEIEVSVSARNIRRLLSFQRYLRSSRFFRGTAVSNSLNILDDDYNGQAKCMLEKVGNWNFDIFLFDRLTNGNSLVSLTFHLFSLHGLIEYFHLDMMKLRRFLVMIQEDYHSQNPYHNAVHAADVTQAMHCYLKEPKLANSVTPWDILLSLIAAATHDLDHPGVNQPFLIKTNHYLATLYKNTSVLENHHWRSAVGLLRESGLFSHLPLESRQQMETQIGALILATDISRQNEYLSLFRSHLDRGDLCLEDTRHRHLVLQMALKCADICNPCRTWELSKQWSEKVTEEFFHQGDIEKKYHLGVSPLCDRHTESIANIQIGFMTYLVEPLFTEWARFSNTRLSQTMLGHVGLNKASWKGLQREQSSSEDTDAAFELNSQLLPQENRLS
Assay: not given
Conditions: J. Biol. Chem., 268, 12925 (1993); cited from earlier work
For `COc1ccc(C2CNC(=O)C2)cc1OC1CCCC1` (stereo not shown) [rolipram], the “inhibition of PDE7” value is listed as “not inhibited”.

Target: T2, PDE7
Assay: In vitro enzyme assay: PDE7 inhibitory activity
Assay type: biochemical
Design: endogenous in cells; host or cells: HuT78 cells; soluble fraction separated on a MonoQ anion-exchange column
Conditions: PDE7 fraction from HuT78 cells, 30 minutes at room temperature
Description: HuT78 cells (derived from human T cell lymphocyte) were cultured in PRMI1640 medium containing 10% bovine fetus serum. 2 L of cells (approximately 8×10^8 cells) were collected, and they were homogenized in a buffer [50 mmol/l tris hydrochloric acid buffer containing 1 mmol/l dithiothreitol (DTT), 2 mmol/l ethylenediamine tetraacetate disodium (EDTA-2Na). After centrifugation (50,000 rpm, 4° C., 1 hour), the supernatant was collected, and filtered over 0.22 μm filter and the filtrate was fractionated by column chromatography on MonoQ (Pharmacia, hard negative ion exchange column) using the filtrate as soluble portion. The PDE activity of the fraction eluted by the concentration gradient of NaCl of 0-0.8 mol/L was measured using 1 μmol/l of cAMP as a substrate. Fractions where PDE activity is not inhibited by 10 μmol/l of rolipram ([…]) are collected. As to the PDE activity of these fractions, substrate-specificity against cAMP and Michaelis-Menten constant were measured and sensitivity to rolipram was confirmed. Then the fractions which show specificity and high affinity to cAMP which are non-sensitive fractions to rolipram were identified as PDE7. The fractions were used as an enzyme liquor for the measurement of PDE inhibitory activity.
PDE7 inhibitory activity of the compound of the present invention of was evaluated by the following method. 70 μl of diluted enzyme solution, 10 μl of the solution of the compound of the present invention (10% in DMSO), 10 μl of reaction buffer solution [50 mmol/l MgCl2, 1 mg/ml bovine serum albumin, 200 mmol/l tris hydrochloric acid buffer (pH 8.0) containing 40 mmol/l 2-mercaptoethanol] in 96 well plate and it was incubated for 30 minutes at room temperature. It was microwaved for 2.5 minutes to terminate the reaction. It was centrifuged (2,000 rpm for 1 minute) and thereto was added 10 μl of 1 mg/ml snake venom (Sigma, cat. V7000) and it was incubated for 30 minutes at room temperature. The […] (50 μl) was applied to alumina column (100 μl). Purified ^3H-adenosine was eluted with 0.005N hydrochloric acid (80 μl) and its radioactivity of the elute was measured.
PDE7 inhibitory activity of the present invention was evaluated by the activity inhibitory percentage calculated from the following equation. Activity inhibitory percentage (%)=(1-radioactivity in the presence of the compound of the present invention/radioactivity in the absence of the compound of the present invention)×100
Work on `COc1ccc2c(c1)/C(=C/C(=O)c1ccc(C#N)cc1)NC(C)(C)C2` [11(35), (Z)-2-(7-methoxy-3,3-dimethyl-3,4-dihydro-(2H)-isoquinolin-1-ylidene)-1-(4-cyanophenyl)ethan-1-one] yielded an IC50 of 150 nM. For `COc1ccccc1C(=O)/C=C1\NC(C)(C)Cc2ccc(Cl)cc21` [11(43), (Z)-2-(7-chloro-3,3-dimethyl-3,4-dihydro-(2H)-isoquinolin-1-ylidene)-1-(2-methoxyphenyl)ethan-1-one], the IC50 was 970 nM. `CC1(C)Cc2ccc(Cl)cc2/C(=C/C(=O)C23CC4CC(CC(C4)C2)C3)N1` [11(79), (Z)-2-(7-chloro-3,3-dimethyl-3,4-dihydro-(2H)-isoquinolin-1-ylidene)-1-(adamantan-1-yl)ethan-1-one] gave an IC50 of 760 nM. In the case of `CNc1ccc2c(c1)/C(=C/C(=O)c1ccc(C#N)cc1)NC(C)(C)C2` [11(162), (Z)-2-(7-methylamino-3,3-dimethyl-3,4-dihydro-(2H)-isoquinolin-1-ylidene)-1-(4-cyanophenyl)ethan-1-one], the IC50 is reported as 370 nM. Work on `COc1ccc2c(c1)CC(C)(C)N/C2=C\C(=O)C1CCCCC1` [12(7), (Z)-2-(6-methoxy-3,3-dimethyl-3,4-dihydro-(2H)-isoquinolin-1-ylidene)-1-cyclohexylethan-1-one] yielded an IC50 of 270 nM. Work on `COc1ccccc1C(=O)/C=C1\NC(C)(C)Cc2cc(Cl)ccc21` [12(15), (Z)-2-(6-chloro-3,3-dimethyl-3,4-dihydro-(2H)-isoquinolin-1-ylidene)-1-(2-methoxyphenyl)ethan-1-one] yielded an IC50 of 1100 nM. For `COc1ccc2c(c1)/C(=C/C(=O)c1ccc(N)cc1)NC2(C)C` [Example 58, (Z)-2-(6-methoxy-3,3-dimethyl-2,3-dihydro-(2H)-isoindol-1-ylidene)-1-(4-aminophenyl)ethan-1-one], the IC50 was 23 nM. With `COc1ccc2c(c1)/C(=C/C(=O)c1ccc(NC(N)=O)cc1)NC(C)(C)C2` [Example 73, (Z)-2-(7-methoxy-3,3-dimethyl-3,4-dihydro-(2H)-isoquinolin-1-ylidene)-1-(4-((aminocarbonyl)amino)phenyl)ethan-1-one] the IC50 was 27 nM.
